Test results from US20220265671A1, “METHOD FOR TREATING STROKE BY USING TRICYCLIC DERIVATIVE” (Jeil Pharmaceutical Co., Ltd., priority 2019, published 2022).
“And” between values parts separate entries of the source, which are not always exact repeats. Equal entries are not always repeated.

Key:
tMCAO animal model = conditions: Molecular Neurobiology 55(9859), January 2018; cited from earlier work
[1] = tested on: patients with acute ischemic stroke; test: Phase II clinical test: Korean version of modified Rankin Scale (K-mRS) at day 90; assay type: in vivo, human
Method: (§1) A multi-organ, randomly allocated, double-blind, placebo-controlled, and initial phase II clinical test was conducted on patients with acute ischemic stroke to explore and evaluate the efficacy and safety of the study drug, respectively. This clinical test includes a total of three cohorts, and test subject registration starts from Cohort 1, and when the safety is secured, Cohort 2 is sequentially registered. The registration of Cohort 2 proceeds when the safety is secured after evaluation by the Data Safety Monitoring Board (DSMB) at the time point when all the test subjects of Cohort 1 completed Visit 5 (Day 29). Cohorts 1 and 2 are for confirming the safety and efficacy of the test drug, and based on this, the dose and dosage regimen, and the like of Cohort 3 are determined.
(§2) This clinical test is conducted on patients with modified thrombolysis in cerebral infarction (mTICI) 2b or 3 grade reperfusion in angiography after endovascular recanalization therapy (ERT) among patients with severe ischemic stroke in moderate cases confirmed to have undergone acute cerebral artery occlusion of the anterior circulation system. Intravenous tissue plasminogen activator (IV tPA) intravenous administration is permitted when the stroke is indicated before ERT. Furthermore, when angiography is performed for ERT after intravenous tPA administration, patients who have already undergone mTICI 2b-3 reperfusion by a venous tPA effect alone before ERT also become a subject of the clinical test.
(§3) The following Cohorts 1 to 3 are administered using an infusion pump after mixing a test drug or control drug with an infusion solution.
(§4) Cohort 1. Low-Dose Administration Group • Test drug group: administration of the test drug is started within 30 minutes after reperfusion is confirmed within 6 hours after the onset of the symptom. Immediately after intravenous administration (bolus) of 150 mg of the test drug for 15 minutes, 750 mg of the test drug is intravenously IV infused for 23 hours and 45 minutes (f2 hours). Administration of the test drug should be started within 6.5 hours after the onset of the symptom. • Control drug group: a placebo is administered in the same manner as in the test drug group.
as §4, with “2. High-Dose” for “1. Low-Dose”, “300” for “150”, “30” for “15”, “1500” for “750”, “30” for “45”, “(±2” for “(f2”
The most widely used method for evaluating disability or dependence in daily life for people who have suffered from stroke or other neurological disorders is the Korean version of a modified Rankin Scale (K-mRS). The K-mRS is a global functional outcome scale which evaluates disability due to stroke and is the most universally used scale in stroke clinical tests. The K-mRS distribution shift analysis is a method of comparing the overall prognosis of the test group and the control group, and is the most recommended analysis method in clinical tests for acute stroke treatment methods including neuroprotective agents. The K-mRS is a scale of evaluating the patient's global functionality according to the independence of daily life and the degree to which the patient needs others' help, and is divided into 0 to 6 phases (0: normal, 5: severe disability, and 6: death). At the time points of days 29 and 90, a proportion of the K-mRS score evaluated by the evaluator is presented, and the pre-mRS evaluated at the time of screening is used as basic disease information. […]

[2] = Population pharmacokinetics model (NONMEM) built on single dose phase 1 data; set-up: species or system human
Method: A pharmacokinetics model for administration of a test drug was established for integration with a quantitative pharmacokinetics model for simulating the efficacy and safety of test drugs, as well as simulating the pharmacokinetics of future doses and dosage regimens. The simulation was performed by constructing a pharmacokinetics model based on pharmacokinetics information and demographic information of a total of 30 test subjects who were administered 35 mg, 75 mg, 150 mg, 300 mg, and 600 mg among the test subjects who participated in the single dose clinical test of test drug phase 1. The analysis was performed by a non-linear mixed effect modeling method using NONMEM® (version 7.2; ICON Development Solutions, Ellicott City, Md., USA).
The population pharmacokinetics model was constructed in the order of structural model construction, covariate analysis, and model selection. As a first step, a basic structural model was constructed, and as a step of establishing a model capable of best explaining the change in drug concentration over time, the most pharmacologically and statistically suitable model was selected by performing a search in the order of a 1-compartment model, a 2-compartment model, and a 3-compartment model. As the next step, covariate analysis was performed, and the effects of age, height, body weight, serum creatine, BUN, albumin, AST, and ALT concentrations which are part of the demographic information on pharmacokinetics were quantitatively evaluated. Finally, model selection (internal validation) was performed, a simulation of the established model was performed, and this was evaluated by a visual predictive check (VPC), which is a schematic evaluation method.
The pattern of time-blood concentration changes of the test drug is best explained by a 3-compartment model with 1st order elimination. No significant covariate was found in the covariate analysis utilizing age, height, body weight, serum creatine, BUN, albumin, AST, and ALT concentrations.

healthy male volunteers [3] = test: Phase 1 clinical test, multi dose escalation: adverse reactions; assay type: in vivo, human
Method: In order to evaluate the safety at the time of a repeated dose of a test drug, a phased clinical test was conducted as determined by the Data Safety Monitoring Board (DSMB) on 24 subjects (8 subjects per cohort: 6 subjects in test group and 2 subjects in placebo group) in 3 dose groups (repeated administration of 150 mg, 300 mg, and 450 mg seven times at intervals of 12 hours) selected from healthy male volunteers in Korea.
A test drug or placebo was mixed with an infusion solution by intravenous injection therapy, and then administered using an infusion pump for 60 minutes (±10 minutes), and the same was repeatedly administered seven times at intervals of 12 hours.
Of the 24 test subjects who were administered the clinical test drug, a total of 7 test subjects developed 12 adverse reactions, and among them, 10 cases were confirmed to be adverse drug reactions. One case (one person) of an adverse reaction occurred in the placebo-administered group. […] Accordingly, it was determined that the tolerability of about 150 to 450 mg of the test drug during the repeated administration at intervals of 12 hours was good.

[4] = tested on: patients with acute ischemic stroke; test: Phase II clinical test: change ratio of cerebral infarction lesion (MRI, day 4 vs baseline); assay type: in vivo, human
Method: as §1, §2, §3, §4
Diffusion weighted imaging (DWI) and gradient-recalled echo (GRE) or susceptibility weighted imaging (SWI), and magnetic resonance imaging (MRI) examination are performed within 90 minutes after reperfusion while administering a medicine for a clinical test, and this is utilized as a baseline result. A change ratio of cerebral infarction lesion at a time point of day 4 compared to the baseline was measured.
For comparison between a test group and the placebo, a two sample t-test is used after log conversion of an evaluation variable (infarct growth ratio). Additionally, a comparison between the test group and the placebo is made using a Wilcoxon rank sum test for a source data log which is not log-converted.
When factors that may affect prognosis should be corrected, analysis of covariance (ANCOVA) is used after log conversion of the evaluation variables (infarct growth ratio).
In patients who were administered a control drug or a test drug, the change ratio of cerebral infarction lesions among patients with similar baselines of cerebral infarction lesions was confirmed (Table 3).

healthy male volunteers [5] = test: Phase 1 clinical test, single dose escalation: adverse reactions; assay type: in vivo, human
Method: In order to evaluate the safety at the time of a single dose of a test drug, a phased clinical test was conducted as determined by the Data Safety Monitoring Board (DSMB) on 40 subjects (8 subjects per cohort: 6 subjects in test group and 2 subjects in placebo group) in 5 dose groups (35 mg, 75 mg, 150 mg, 300 mg, 600 mg) selected from healthy male volunteers in Korea.
A test drug or placebo was mixed with an infusion solution by intravenous injection therapy, and then administered using an infusion pump for 30 minutes (±5 minutes).
Of the 40 test subjects who were administered the clinical test drug, a total of 6 test subjects developed 7 adverse reactions. There were no reported adverse reactions in the placebo-administered group. Of the 7 adverse reactions, 1 case of “dizziness” was a moderate symptom in the test subjects who were administered 600 mg, and all other adverse reactions corresponded to a mild symptom. The subjects were spontaneously recovered from all the adverse reactions without any sequelae. […] Accordingly, it was determined that the drug tolerability of a single dose of the test drug was good in the test dose range.

[6] = Cohort 1 (150 mg bolus + 750 mg infusion), n = 9
[7] = Cohort 2 (300 mg bolus + 1500 mg infusion), n = 6
[8] = 3-compartment model, structural model
[9] = interindividual variability, predicted value
[10] = repeated dose 150-450 mg, seven times at 12 h intervals
[11] = Cohort 1, day 4 compared to baseline, individual patients 2, 4, 6, 8, dihydrochloride

## CCOc1cc(CN2CCOCC2)cc2[nH]c(=O)c3c(c12)NCCC3 [10-ethoxy-8-(morpholinomethyl)-1,2,3,4-tetrahydrobenzo[h][1,6]naphthyridin-5(6H)-one]
tMCAO animal model
  reducing cerebral infarction volume: effective in reducing cerebral infarction volume

## CCOc1cc(CN2CCOCC2)cc2[nH]c(=O)c3c(c12)NCCC3.Cl.Cl [Test drug, 10-ethoxy-8-(morpholinomethyl)-1,2,3,4-tetrahydrobenzo[h][1,6]naphthyridin-5(6H)-one dihydrochloride]
[1]; 900 mg of the test drug, day 90
  results of the K-mRS compared to control drug group: far superior
[1]; [6]
  K-mRS classification at the time point of day 90: K-mRS 0~2: 7(77.78) n(%)
  K-mRS classification at the time point of day 90: K-mRS 3~4: 2(22.22) n(%)
  K-mRS classification at the time point of day 90: K-mRS 5~6: 0 n(%)
[1]; Cohort 1 (900 mg), N = 9
  K-mRS (continuous variable) at the time point of day 90, 1st Quartile: 0.00
  K-mRS (continuous variable) at the time point of day 90, 3rd Quartile: 2.00
  K-mRS (continuous variable) at the time point of day 90, Max: 4.00
  K-mRS (continuous variable) at the time point of day 90, Mean(SD): 1.44(1.42)
  K-mRS (continuous variable) at the time point of day 90, Median: 1.00
  K-mRS (continuous variable) at the time point of day 90, Min: 0.00
[1]; Cohort 1, N = 9
  K-mRS classification at the time point of day 90: K-mRS 0: 3(33.33) n(%)
  K-mRS classification at the time point of day 90: K-mRS 1: 2(22.22) n(%)
  K-mRS classification at the time point of day 90: K-mRS 2: 2(22.22) n(%)
  K-mRS classification at the time point of day 90: K-mRS 3: 1(11.11) n(%)
  K-mRS classification at the time point of day 90: K-mRS 4: 1(11.11) n(%)
  K-mRS classification at the time point of day 90: K-mRS 5: 0 n(%)
  K-mRS classification at the time point of day 90: K-mRS 6: 0 n(%)
[1]; [7]
  K-mRS classification at the time point of day 90: K-mRS 0~2: 1(20.00) n(%)
  K-mRS classification at the time point of day 90: K-mRS 3~4: 3(60.00) n(%)
  K-mRS classification at the time point of day 90: K-mRS 5~6: 1(20.00) n(%)
[2]; [8]
  1st Clearance of peripheral compartment (Q1), predicted value: 162 L/h
  1st Volume of peripheral compartment (V2), predicted value: 58.5 L
  2nd Clearance of peripheral compartment (Q2), predicted value: 2.66 L/h
  2nd Volume of peripheral compartment (V3), predicted value: 8.81 L
  Volume of central compartment (V1), predicted value: 15.2 L
[2]; 3-compartment model, structural model, 30 subjects, 35-600 mg IV
  Clearance of central compartment (CL), predicted value: 32.0 L/h
[2]; [9]
  Interindividual model CL: 43.8%
  Interindividual model Q1: 41.7%
  Interindividual model Q2: 28.1%
  Interindividual model V1: 52.4%
  Interindividual model V2: 20.2%
  Interindividual model V3: 64.1%
Healthy male volunteers [3]; 150, 300, 450 mg IV over 60 minutes, seven times at intervals of 12 hours, of the 24 test subjects, includes one person in placebo group
  test subjects who developed adverse reactions: 7
Healthy male volunteers [3]; about 150 to 450 mg at intervals of 12 hours
  tolerability during repeated administration: good
Healthy male volunteers [3]; repeated dose 150-450 mg, entire clinical test
  significant adverse reactions: no significant adverse reactions occurred
Healthy male volunteers [3]; [10]
  adverse reactions confirmed to be adverse drug reactions, cases: 10
  severity of adverse reactions: mild
Healthy male volunteers [3]; repeated dose 150-450 mg, seven times at 12 h intervals, 24 test subjects, one case in placebo group
  number of adverse reactions: 12
[4]; Cohort 1 (150 mg bolus + 750 mg infusion), individual patients 2, 4, 6, 8, MRI within 90 minutes after reperfusion, dihydrochloride
  Cerebral infarction lesion, Baseline: 1.59 cc and 10.1 cc and 32 cc and 126.66 cc
[4]; Cohort 1 (150 mg bolus + 750 mg infusion), individual patients 2, 4, 6, 8, dihydrochloride
  Cerebral infarction lesion, Time point of day 4: 2.67 cc and 10.94 cc and 45.33 cc and 127.61 cc
[4]; [11]
  Change ratio of cerebral infarction lesion: 1.68 and 1.08 and 1.42 and 1.01
  Rate of increase in cerebral infarction lesion: 67.9% and 8.3% and 41.7% and 0.8%
[4]; patients with similar baselines, Table 3
  rate of increase in cerebral infarction lesions compared to control drug group: significantly low rate of increase in cerebral infarction lesions
Healthy male volunteers [5]; single IV dose 35-600 mg over 30 minutes, 40 test subjects
  number of adverse reactions: 7
Healthy male volunteers [5]; single IV dose 35-600 mg over 30 minutes, of the 40 test subjects, no adverse reactions in placebo group
  test subjects who developed adverse reactions: 6
Healthy male volunteers [5]; single dose 600 mg, all other adverse reactions mild
  moderate adverse reactions (dizziness), cases: 1
Healthy male volunteers [5]; single dose 35-600 mg, entire clinical test
  significant adverse reactions: No significant adverse reactions occurred
Healthy male volunteers [5]; test dose range 35-600 mg IV
  drug tolerability of a single dose: good
